Measurements as given in ChEMBL document CHEMBL5696443 (Clin Cancer Res, 2016).
pIC50: −log10 of the molar value. Calls of active or inactive are those of the source. The rule behind the calls is not given here.

Key:
[1] = target: Proto-oncogene tyrosine-protein kinase receptor Ret (Homo sapiens, UniProt P07949, V804L); assay: Inhibition of human RET V804L mutant using RRRRRRRRRRRVYSTDYYRLFNPS as substrate in presence of [gamma33P]-ATP by HotSpot assay
[2] = target: Ribosomal protein S6 kinase alpha-2 (Homo sapiens, UniProt Q15349); assay: Inhibition of human RPS6kA2 using KKLNRTLSVA as substrate in presence of [gamma33P]-ATP by HotSpot assay
Chain of Ribosomal protein S6 kinase alpha-2 (Q15349 whole entry): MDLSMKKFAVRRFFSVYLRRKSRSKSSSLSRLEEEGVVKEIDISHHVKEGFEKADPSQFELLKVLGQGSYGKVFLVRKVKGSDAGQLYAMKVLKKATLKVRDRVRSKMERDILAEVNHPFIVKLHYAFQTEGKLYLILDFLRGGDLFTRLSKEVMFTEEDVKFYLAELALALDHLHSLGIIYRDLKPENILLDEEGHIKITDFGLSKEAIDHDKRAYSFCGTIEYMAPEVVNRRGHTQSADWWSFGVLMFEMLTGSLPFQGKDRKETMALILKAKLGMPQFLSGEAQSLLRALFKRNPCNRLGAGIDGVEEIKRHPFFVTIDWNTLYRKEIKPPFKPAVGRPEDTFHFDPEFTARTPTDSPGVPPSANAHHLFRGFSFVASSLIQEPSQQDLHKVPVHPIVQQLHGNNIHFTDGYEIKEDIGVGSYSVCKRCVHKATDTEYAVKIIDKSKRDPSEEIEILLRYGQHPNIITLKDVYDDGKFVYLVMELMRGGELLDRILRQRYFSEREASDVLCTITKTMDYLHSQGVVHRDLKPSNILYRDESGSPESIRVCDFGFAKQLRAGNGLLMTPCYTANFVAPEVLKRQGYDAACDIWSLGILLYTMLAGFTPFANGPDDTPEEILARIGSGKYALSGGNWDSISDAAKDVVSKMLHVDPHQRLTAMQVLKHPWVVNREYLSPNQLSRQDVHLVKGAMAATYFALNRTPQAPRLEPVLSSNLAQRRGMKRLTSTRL

[3] = target: Serine/threonine-protein kinase 10 (Homo sapiens, UniProt O94804); assay: Inhibition of human STK10 using RLGRDKYKTLRQIRQ as substrate in presence of [gamma33P]-ATP by HotSpot assay
Chain of Serine/threonine-protein kinase 10 (O94804 whole entry, the tested form may be a part): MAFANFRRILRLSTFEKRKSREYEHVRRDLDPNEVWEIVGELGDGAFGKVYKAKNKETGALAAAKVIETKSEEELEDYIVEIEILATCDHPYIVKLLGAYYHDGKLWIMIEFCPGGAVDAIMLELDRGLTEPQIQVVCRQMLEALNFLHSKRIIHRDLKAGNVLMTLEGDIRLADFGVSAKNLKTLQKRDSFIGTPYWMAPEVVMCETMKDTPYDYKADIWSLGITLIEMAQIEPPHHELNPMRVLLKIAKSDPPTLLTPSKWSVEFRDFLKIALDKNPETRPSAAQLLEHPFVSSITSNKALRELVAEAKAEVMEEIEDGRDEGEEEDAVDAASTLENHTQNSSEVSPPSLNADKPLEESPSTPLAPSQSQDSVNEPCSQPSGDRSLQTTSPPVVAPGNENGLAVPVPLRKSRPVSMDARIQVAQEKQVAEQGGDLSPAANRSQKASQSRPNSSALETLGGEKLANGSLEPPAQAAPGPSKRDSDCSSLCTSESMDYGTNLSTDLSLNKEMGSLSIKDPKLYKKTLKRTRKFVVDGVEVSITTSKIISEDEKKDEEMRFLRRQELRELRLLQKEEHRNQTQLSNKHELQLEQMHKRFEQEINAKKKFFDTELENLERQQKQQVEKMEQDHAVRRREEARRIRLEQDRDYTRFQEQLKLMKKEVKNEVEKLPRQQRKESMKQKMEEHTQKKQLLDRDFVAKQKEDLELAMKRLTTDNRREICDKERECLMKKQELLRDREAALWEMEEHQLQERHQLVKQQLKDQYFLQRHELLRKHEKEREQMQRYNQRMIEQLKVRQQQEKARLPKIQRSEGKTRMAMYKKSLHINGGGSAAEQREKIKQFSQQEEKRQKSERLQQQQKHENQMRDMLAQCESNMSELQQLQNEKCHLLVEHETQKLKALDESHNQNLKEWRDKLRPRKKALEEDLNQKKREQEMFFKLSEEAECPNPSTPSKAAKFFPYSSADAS

[4] = target: PAS domain-containing serine/threonine-protein kinase (Homo sapiens) (UniProt Q96RG2); assay: Inhibition of human PASK at 1 uM using KKLNRTLSFAEPG as substrate in presence of [gamma33P]-ATP by HotSpot assay relative to control
[5] = Average plasma concentration in CB-17/SCID mouse at 50 mg/kg administered once a day for 4 days by LC-MS/MS analysis; format: ADME, organism-based; details: in vivo, 96 h, time 4 day
[6] = target: Ephrin type-A receptor 7 (Homo sapiens, UniProt Q15375); assay: Inhibition of human EPHA7 using poly (Glu, Tyr)4:1 as substrate in presence of [gamma33P]-ATP by HotSpot assay
[7] = target: Platelet-derived growth factor receptor alpha (Homo sapiens) (UniProt P16234); assay: Inhibition of human PDGFRalpha at 1 uM using poly (Glu, Tyr)4:1 as substrate in presence of [gamma33P]-ATP by HotSpot assay relative to control
Chain of Platelet-derived growth factor receptor alpha (Homo sapiens) (P16234 whole entry): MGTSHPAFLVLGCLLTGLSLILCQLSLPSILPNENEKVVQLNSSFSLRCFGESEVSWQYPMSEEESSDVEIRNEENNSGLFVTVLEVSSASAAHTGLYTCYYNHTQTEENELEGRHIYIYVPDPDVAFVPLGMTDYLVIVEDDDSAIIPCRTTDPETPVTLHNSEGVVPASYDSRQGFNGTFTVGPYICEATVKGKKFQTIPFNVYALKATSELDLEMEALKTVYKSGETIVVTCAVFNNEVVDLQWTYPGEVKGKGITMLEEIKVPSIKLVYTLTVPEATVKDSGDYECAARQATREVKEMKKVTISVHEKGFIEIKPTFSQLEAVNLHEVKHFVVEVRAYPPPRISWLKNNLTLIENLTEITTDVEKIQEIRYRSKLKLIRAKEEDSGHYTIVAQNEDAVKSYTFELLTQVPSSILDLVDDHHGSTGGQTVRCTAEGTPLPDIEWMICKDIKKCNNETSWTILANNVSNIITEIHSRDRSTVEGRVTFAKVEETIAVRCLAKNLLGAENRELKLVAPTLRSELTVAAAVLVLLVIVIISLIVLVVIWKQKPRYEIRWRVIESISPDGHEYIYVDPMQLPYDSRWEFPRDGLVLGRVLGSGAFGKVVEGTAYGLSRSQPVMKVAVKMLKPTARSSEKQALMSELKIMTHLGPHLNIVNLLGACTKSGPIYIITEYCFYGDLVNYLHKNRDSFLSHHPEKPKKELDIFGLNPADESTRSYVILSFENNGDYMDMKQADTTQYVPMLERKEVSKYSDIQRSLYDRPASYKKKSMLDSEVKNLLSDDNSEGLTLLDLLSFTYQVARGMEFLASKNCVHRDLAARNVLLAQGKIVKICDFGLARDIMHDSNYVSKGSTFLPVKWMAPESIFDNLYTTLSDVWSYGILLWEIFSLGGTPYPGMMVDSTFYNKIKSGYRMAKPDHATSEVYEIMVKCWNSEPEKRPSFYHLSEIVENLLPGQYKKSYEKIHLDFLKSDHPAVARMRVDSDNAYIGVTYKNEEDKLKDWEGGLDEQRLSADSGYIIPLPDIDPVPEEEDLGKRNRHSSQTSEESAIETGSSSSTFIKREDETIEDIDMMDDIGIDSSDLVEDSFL

[8] = target: Mitogen-activated protein kinase kinase kinase 20 (Homo sapiens) (UniProt Q9NYL2); assay: Inhibition of human ZAK at 1 uM using MBP as substrate in presence of [gamma33P]-ATP by HotSpot assay relative to control
[9] = target: Mitogen-activated protein kinase 8 (Homo sapiens) (UniProt P45983); assay: Inhibition of human JNK1a1 at 1 uM using ATF2 as substrate in presence of [gamma33P]-ATP by HotSpot assay relative to control
[10] = target: LIM domain kinase 1 (Homo sapiens) (UniProt P53667); assay: Inhibition of human LIMK1 at 1 uM using cofilin as substrate in presence of [gamma33P]-ATP by HotSpot assay relative to control
[11] = Toxicity in CB-17/SCID mouse implanted with ALK positive mouse BaF3 cells expressing EML4-ALK G1202R mutant assessed as effect on body weight at 25 to 50 mg/kg, po administered once daily and measured after 6 days; format: organism-based; details: in vivo, 144 h, dose 25-50 mg/kg, time 6 day
[12] = tested on: NCI-H3122; details: time 72 hrs
[13] = target: Cyclin-dependent kinase 2/cyclin E1 (Homo sapiens) (UniProt P24864+P24941); assay: Inhibition of human CDK2/CyclinE at 1 uM using RB protein as substrate in presence of [gamma33P]-ATP by HotSpot assay relative to control; format: protein-complex assay
[14] = target: Casein kinase II subunit alpha (Homo sapiens) (UniProt P68400); assay: Inhibition of human CK2a at 1 uM using RRRDDDSDDD as substrate in presence of [gamma33P]-ATP by HotSpot assay relative to control
[15] = target: Homeodomain-interacting protein kinase 4 (Homo sapiens) (UniProt Q8NE63); assay: Inhibition of human HIPK4 at 1 uM using MBP as substrate in presence of [gamma33P]-ATP by HotSpot assay relative to control
[16] = target: Mitogen-activated protein kinase kinase kinase 14 (Homo sapiens) (UniProt Q99558); assay: Inhibition of human MAP3K14 at 1 uM using MBP as substrate in presence of [gamma33P]-ATP by HotSpot assay relative to control
[17] = target: Serine/threonine-protein kinase 17A (Homo sapiens) (UniProt Q9UEE5); assay: Inhibition of human STK17A at 1 uM using KKLNRTLSFAEPG as substrate in presence of [gamma33P]-ATP by HotSpot assay relative to control
[18] = target: Homeodomain-interacting protein kinase 1 (Homo sapiens) (UniProt Q86Z02); assay: Inhibition of human HIPK1 at 1 uM using MBP as substrate in presence of [gamma33P]-ATP by HotSpot assay relative to control
[19] = Average plasma concentration in CB-17/SCID mouse at 25 mg/kg administered once a day for 4 days by LC-MS/MS analysis; format: ADME, organism-based; details: in vivo, 96 h, time 4 day
[20] = target: Protein kinase C gamma type (Homo sapiens) (UniProt P05129); assay: Inhibition of human PKCG at 1 uM using ERMRPRKRQGSVRRRV as substrate in presence of [gamma33P]-ATP by HotSpot assay relative to control
[21] = target: Interleukin-1 receptor-associated kinase 1 (Homo sapiens) (UniProt P51617); assay: Inhibition of human IRAK1 at 1 uM using MBP as substrate in presence of [gamma33P]-ATP by HotSpot assay relative to control
[22] = target: Ephrin type-A receptor 1 (Homo sapiens, UniProt P21709); assay: Inhibition of human EPHA1 using poly (Glu, Tyr)4:1 as substrate in presence of [gamma33P]-ATP by HotSpot assay
[23] = tested on: EML4-ALK (Homo sapiens), Q9UM73+Q9HC35 [F1174L]; details: BaF3, dose 500.0 nmol/L, time 3-5 weeks
[24] = target: Tyrosine-protein kinase ABL1 (Homo sapiens, UniProt P00519, T315I); assay: Inhibition of human ABL1 T315I mutant using EAIYAAPFAKKK as substrate in presence of [gamma33P]-ATP by HotSpot assay
[25] = target: Serine/threonine-protein kinase 33 (Homo sapiens) (UniProt Q9BYT3); assay: Inhibition of human STK33 at 1 uM using MBP as substrate in presence of [gamma33P]-ATP by HotSpot assay relative to control
Chain of Serine/threonine-protein kinase 33 (Homo sapiens) (Q9BYT3 whole entry, looked up): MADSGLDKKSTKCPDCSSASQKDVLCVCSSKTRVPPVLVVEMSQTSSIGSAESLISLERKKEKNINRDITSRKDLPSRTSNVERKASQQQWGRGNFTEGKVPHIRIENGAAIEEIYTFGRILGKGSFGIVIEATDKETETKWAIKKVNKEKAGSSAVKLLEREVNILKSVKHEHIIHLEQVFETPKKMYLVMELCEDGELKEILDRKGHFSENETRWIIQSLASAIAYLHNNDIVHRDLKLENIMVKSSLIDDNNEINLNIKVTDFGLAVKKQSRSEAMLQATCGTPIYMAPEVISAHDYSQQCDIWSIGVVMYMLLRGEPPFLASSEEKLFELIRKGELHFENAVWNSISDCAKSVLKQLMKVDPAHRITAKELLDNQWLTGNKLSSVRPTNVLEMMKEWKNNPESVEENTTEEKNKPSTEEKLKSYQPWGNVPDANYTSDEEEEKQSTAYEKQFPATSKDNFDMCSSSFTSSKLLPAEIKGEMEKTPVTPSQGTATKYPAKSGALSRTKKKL

[26] = tested on: EML4-ALK (Homo sapiens), Q9UM73+Q9HC35 [L1152P]; details: BaF3, time 3-5 weeks
[27] = Average plasma concentration in human at 90 mg administered once a day; format: ADME; details: in vivo
[28] = tested on: EML4-ALK (Homo sapiens), Q9UM73+Q9HC35 [E1210K]; details: BaF3, dose 200.0 nmol/L, time 3-5 weeks
[29] = target: Tyrosine-protein kinase Fgr (Homo sapiens, UniProt P09769); assay: Inhibition of human FGR using poly (Glu, Tyr)4:1 as substrate in presence of [gamma33P]-ATP by HotSpot assay
Chain of Tyrosine-protein kinase Fgr (P09769 whole entry): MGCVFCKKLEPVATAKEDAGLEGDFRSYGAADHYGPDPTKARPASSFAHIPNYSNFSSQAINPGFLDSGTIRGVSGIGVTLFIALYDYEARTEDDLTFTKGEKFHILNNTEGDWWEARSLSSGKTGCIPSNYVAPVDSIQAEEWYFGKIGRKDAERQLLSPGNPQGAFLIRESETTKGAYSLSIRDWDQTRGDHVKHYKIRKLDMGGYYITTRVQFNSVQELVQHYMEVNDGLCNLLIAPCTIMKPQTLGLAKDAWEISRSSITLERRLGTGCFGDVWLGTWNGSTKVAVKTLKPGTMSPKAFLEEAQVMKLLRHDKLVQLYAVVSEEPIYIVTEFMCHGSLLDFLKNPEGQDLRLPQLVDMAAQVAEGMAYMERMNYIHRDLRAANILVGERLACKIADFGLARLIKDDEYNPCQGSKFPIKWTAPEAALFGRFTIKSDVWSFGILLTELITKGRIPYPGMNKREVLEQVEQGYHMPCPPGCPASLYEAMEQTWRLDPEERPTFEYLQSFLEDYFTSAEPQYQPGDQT

Chain of Proto-oncogene tyrosine-protein kinase receptor Ret (P07949 29-1114 V804L limits assumed): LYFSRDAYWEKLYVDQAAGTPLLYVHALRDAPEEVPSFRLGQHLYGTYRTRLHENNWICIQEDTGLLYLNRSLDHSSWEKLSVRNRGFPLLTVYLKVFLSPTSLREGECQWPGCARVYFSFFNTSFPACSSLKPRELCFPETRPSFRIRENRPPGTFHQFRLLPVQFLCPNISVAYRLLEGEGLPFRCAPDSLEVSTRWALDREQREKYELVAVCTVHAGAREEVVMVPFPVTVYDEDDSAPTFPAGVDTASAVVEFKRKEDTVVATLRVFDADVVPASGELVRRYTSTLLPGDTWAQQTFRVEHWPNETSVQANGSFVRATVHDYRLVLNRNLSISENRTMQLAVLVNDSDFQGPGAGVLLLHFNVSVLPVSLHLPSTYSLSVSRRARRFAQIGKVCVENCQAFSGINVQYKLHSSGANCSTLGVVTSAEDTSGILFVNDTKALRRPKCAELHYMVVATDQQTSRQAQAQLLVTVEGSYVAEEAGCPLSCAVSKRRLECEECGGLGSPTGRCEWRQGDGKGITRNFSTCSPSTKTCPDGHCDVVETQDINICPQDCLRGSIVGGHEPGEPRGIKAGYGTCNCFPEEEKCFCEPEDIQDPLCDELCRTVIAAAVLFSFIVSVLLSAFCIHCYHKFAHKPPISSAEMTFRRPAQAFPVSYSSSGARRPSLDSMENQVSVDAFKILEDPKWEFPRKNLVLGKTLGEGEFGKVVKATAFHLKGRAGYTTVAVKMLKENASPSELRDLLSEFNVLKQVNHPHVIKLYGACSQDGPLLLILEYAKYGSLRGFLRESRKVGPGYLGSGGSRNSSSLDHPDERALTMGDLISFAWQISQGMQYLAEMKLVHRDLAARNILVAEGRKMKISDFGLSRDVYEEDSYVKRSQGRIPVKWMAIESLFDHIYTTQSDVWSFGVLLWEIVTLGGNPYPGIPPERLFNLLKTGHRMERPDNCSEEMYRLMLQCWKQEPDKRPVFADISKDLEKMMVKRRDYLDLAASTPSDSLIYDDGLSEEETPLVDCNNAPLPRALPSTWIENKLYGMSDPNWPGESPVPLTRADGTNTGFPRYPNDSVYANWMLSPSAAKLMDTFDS

Work on `COc1cc(N2CCC(N3CCN(C)CC3)CC2)ccc1Nc1ncc(Cl)c(Nc2ccccc2P(C)(C)=O)n1` [BRIGATINIB] yielded a pIC50 [1] of 7.57, a pIC50 [2] of 7.89 and a pIC50 [3] of 6.91. The inhibition [4] was < 90%, the Cave [5] was 1870 nM and the pIC50 [6] was < 6.00. For the same compound, the inhibition [7] was < 90%, the inhibition [8] was < 90% and the inhibition [9] was < 90%. The inhibition [10] was < 90%, the Activity [11] was “Non-Toxic” and the GI50 [12] was 4 nM. For the same compound, the inhibition [13] was < 90%, the inhibition [14] was < 90% and the inhibition [15] was < 90%. For the same compound, the inhibition [16] was < 90%, the inhibition [17] was < 90% and the inhibition [18] was < 90%. For the same compound, the Cave [19] was 844 nM, the inhibition [20] was < 90% and the inhibition [21] was < 90%. The pIC50 [22] was < 6.00, the inhibition [23] was “Active” and the pIC50 [24] was 6.62. The inhibition [25] was < 90%, the IC90 [26] was 94 nM and the Cave [27] was 582 nM. The inhibition [28] was “inactive” and the pIC50 [29] was 6.31.
